Laboratory results: patent US12338219B2, “Antimalarial agents” (Merck Sharp & Dohme LLC, priority 2019, dated 2025)

System: parasites (ring stage parasites, parasite growth)
Assay: Parasite LDH growth assay (Parasite Assay), antiparasite potency
Assay type: cell-based
Details: 72 hours growth, LDH readout
Procedure: Assessing Antiparasite Potency in a Parasite LDH Growth Assay (Parasite Assay) The parasite stock was maintained at […] in RPMI-Hepes media buffered with sodium bicarbonate and supplemented with […]. […] On the day of assay set up, a blood smear of the parasite culture was Giemsa stained and counted. The parasitemia was adjusted to 0.7% rings and the haematocrit was diluted to 2% in RPMI-Hepes media buffered with sodium bicarbonate and supplemented with 500 heat inactivated human serum and 0.5% albumax. 30 ul of diluted parasites are then added into 10 ul of media+compound in pre-prepared Greiner TC assay plates. Parasite assay plates were placed in gassed humidified boxes in single layer and allowed to incubate at 37° C. for 72 hours. After 72 hours growth, assay plates are sealed with parafilm and frozen flat, in single file at −80° C. overnight. On the following day, assay plates are allowed to thaw at room temperature for 4 hours to which an LDH assay is performed to measure parasite growth.

Row | SMILES | EC50 (72 h, Table 3) | EC50 (Table 3) | other results
1 | CCC1(CC)CC(=O)N(C[C@@H]2C[C@H]2C(=O)N[C@H]2CC(C)(C)Oc3ccccc32)C(=N)N1 [Example 5] | 49 nM | – | –
2 | CCC1C[C@H](NC(=O)[C@@H]2C[C@H]2CN2C(=N)NC(C)(C)CC2=O)c2ccccc2O1 (single isomer, unassigned) [Example 133A] | – | 210 nM | –
3 | CCC1(C)CC(NC(=O)[C@@H]2C[C@H]2[C@@H](c2cccnc2)N2C(=N)NC(C)(C)CC2=O)c2ccccc2O1 (single isomer, unassigned) [Example 105A] | – | 0.9 nM | –
4 | CC(C)C1(C)CC(NC(=O)[C@@H]2C[C@H]2[C@@H](c2cccnc2)N2C(=N)NC(C)(C)CC2=O)c2ccccc2O1 (single isomer, unassigned) [Example 81B] | – | 1 nM | –
5 | CC[C@]1(C)CC(=O)N([C@H](CCOC)[C@@H]2C[C@H]2C(=O)NC2CC(C)(C)Oc3ccc(OC(F)(F)F)cc32)C(=N)N1 (stereo partly drawn) [Example 129B] | – | 2.5 nM | –
6 | CC[C@]1(C)CC(=O)N([C@H](CCOC)[C@@H]2C[C@H]2C(=O)NC2CC(C)(C)Oc3ccc(F)cc32)C(=N)N1 (single isomer, unassigned) [Example 130B] | – | 2.4 nM | –
7 | CC[C@]1(C)CC(=O)N([C@H](CCOC)[C@@H]2C[C@H]2C(=O)NC2CC(C)(C)Oc3ccc(OC(F)(F)F)cc32)C(=N)N1 (stereo partly drawn) [Example 129A] | 1.3 nM | – | –
8 | COCC[C@H]([C@@H]1C[C@H]1C(=O)N[C@H]1C[C@H](C(F)(F)F)Oc2ccccc21)N1C(=N)N[C@](C)(C(C)C)CC1=O [Example 21B] | – | 1 nM | –
9 | COc1ccc([C@H]([C@@H]2C[C@H]2C(=O)N[C@@H]2c3ccccc3OC(C)(C)[C@H]2O)N2C(=N)NC(C)(C)CC2=O)cn1 [Example 39] | 10.1 nM | – | –
10 | COc1cccc2c1[C@@H](NC(=O)[C@@H]1C[C@H]1CN1C(=N)NC(C)(C)CC1=O)CC(C)(C)O2 [Example 73] | 192 nM | – | –
11 | COCC[C@H]([C@@H]1C[C@H]1C(=O)N[C@@H]1CC(C)(C)Oc2c(F)cc(F)cc21)N1C(=N)NC(C)(C)CC1=O [Example 113A] | 19 nM | – | –
12 | COCC[C@H]([C@@H]1C[C@H]1C(=O)N[C@H]1CC(C)(C)Oc2cccc(OC)c21)N1C(=N)NC(C)(C)CC1=O [Example 74B] | 3.1 nM | – | –
13 | CCC1(CC)CC(=O)N(C[C@@H]2C[C@H]2C(=O)N[C@@H](C)c2ccccc2)C(=N)N1 [Example 3B] | 151 nM | – | –
14 | CCC1(CC)CC(=O)N(C(CC(C)OC)[C@@H]2C[C@H]2C(=O)N[C@@H]2CC(C)(C)Oc3ccccc32)C(=N)N1 (single isomer, unassigned) [Example 143C] | – | – | EC50 (Table 4 (unit inferred)): 57.9 nM
15 | CCC1(CC)CC(=O)N(C[C@H]2[C@H](C(=O)N[C@H]3CC(C)(C)Oc4ccccc43)C2(C)C)C(=N)N1 [Example 34] | 286 nM | – | –
16 | COCC[C@H]([C@@H]1C[C@H]1C(=O)NC1CC(C)(C)Oc2ccc(OC(F)(F)F)cc21)N1C(=N)NC(C)(C)CC1=O (stereo partly drawn) [Example 126A] | 4.7 nM | – | –
17 | COCC[C@H]([C@@H]1C[C@H]1C(=O)N[C@H]1CCOc2ccccc21)N1C(=N)N[C@](C)(C(C)C)CC1=O [Example 22] | 44 nM | – | –
18 | COCC[C@H]([C@@H]1C[C@H]1C(=O)N[C@@H]1CC(C)(C)Oc2cc(C)c(Cl)cc21)N1C(=N)NC(C)(C)CC1=O [Example 137A] | 12 nM | – | –
19 | CCC1(CC)CC(=O)N([C@H](CCOC)[C@@H]2C[C@H]2C(=O)N[C@@H]2c3ccccc3OC(C)(C)[C@H]2O)C(=N)N1 [Example 145] | – | – | EC50 (72 h, Table 4 (unit inferred)): 8.4 nM
20 | CCC1(CC)CC(=O)N([C@H](CCOC)[C@@H]2C[C@H]2C(=O)NC2CC(C)(C)Oc3c(Cl)cccc32)C(=N)N1 (stereo partly drawn) [Example 148A] | – | – | EC50 (72 h, Table 4 (unit inferred)): 2.7 nM
21 | COCC[C@H]([C@@H]1C[C@H]1C(=O)NC1CC(C)(C)Oc2cc(F)ccc21)N1C(=N)NC(C)(C)CC1=O (stereo partly drawn) [Example 76B] | – | 15 nM | –
22 | CCC1(CC)CC(=O)N(C[C@@H]2C(C)[C@H]2C(=O)N[C@@H]2c3ccccc3OC(C)(C)[C@H]2O)C(=N)N1 (single isomer, unassigned) [Example 30A] | – | 45 nM | –
23 | COc1ccc([C@H]([C@@H]2C[C@H]2C(=O)N[C@H]2CC(C)(C)Oc3ccccc32)N2C(=N)NC(C)(C)CC2=O)cn1 [Example 38] | 6.5 nM | – | –
24 | CCC1(C)C[C@H](NC(=O)[C@@H]2C[C@H]2CN2C(=N)NC(C)(C)CC2=O)c2ccccc2O1 (stereo partly drawn) [Example 78] | 300 nM | – | –
25 | COCC[C@H]([C@@H]1C[C@H]1C(=O)N[C@@H]1CC(C)(C)Oc2cc(OC)ccc21)N1C(=N)NC(C)(C)CC1=O [Example 70A] | 77 nM | – | –
26 | CC1(C)CC(=O)N(C[C@@H]2C[C@H]2C(=O)NC2CC(C)(C)Oc3ccc(OC(F)(F)F)cc32)C(=N)N1 (stereo partly drawn) [Example 125A] | 231 nM | – | –
27 | CC1(C)CC(=O)N(C[C@@H]2C[C@H]2C(=O)N[C@H]2CC(C)(C)Oc3ccc(C(F)(F)F)cc32)C(=N)N1 [Example 100] | 170 nM | – | –

Row | SMILES | EC50 (72 h, Table 3) | EC50 (Table 3) | other results
28 | COCC[C@H]([C@@H]1C[C@H]1C(=O)NC1CC2(CCC2)Oc2ccccc21)N1C(=N)NC(C)(C)CC1=O (stereo partly drawn) [Example 131B] | – | 6.1 nM | –
29 | COCC[C@H]([C@@H]1C[C@H]1C(=O)N[C@@H]1CC(C)(C)Oc2ccc(F)cc21)N1C(=N)NC(C)(C)CC1=O [Example 72A] | 11 nM | – | –
30 | CCC1(CC)CC(=O)N([C@H](c2cccnc2)[C@@H]2C[C@H]2C(=O)N[C@H]2CCOc3ccccc32)C(=N)N1 [Example 9] | 6.9 nM | – | –
31 | CCC1(C)CC(NC(=O)[C@@H]2C[C@H]2[C@@H](CCOC)N2C(=N)NC(C)(C)CC2=O)c2ccccc2O1 (stereo partly drawn) [Example 75A] | 8.2 nM | – | –
32 | CCC1(C)CC(NC(=O)[C@@H]2C[C@H]2[C@@H](CCOC)N2C(=N)NC(C)(C)CC2=O)c2ccccc2O1 (single isomer, unassigned) [Example 75D] | – | 7 nM | –
33 | COCC[C@H]([C@@H]1C[C@H]1C(=O)NC1CC(C)(C(C)C)Oc2ccccc21)N1C(=N)NC(C)(C)CC1=O (single isomer, unassigned) [Example 80B] | – | 6.6 nM | –
34 | CCC1(CC)CC(=O)N(C[C@@H]2C(C)[C@H]2C(=O)N[C@@H]2c3ccccc3OC(C)(C)[C@H]2O)C(=N)N1 (single isomer, unassigned) [Example 30B] | – | 7.7 nM | –
35 | CC1(C)CC(=O)N([C@H](c2cccnc2)[C@@H]2C[C@H]2C(=O)NC2CC(C)(C)Oc3cc(F)ccc32)C(=N)N1 (stereo partly drawn) [Example 77A] | 1.7 nM | – | –
36 | COCC[C@H]([C@@H]1C[C@H]1C(=O)NC1CC(C)(C)Oc2c(F)cccc21)N1C(=N)NC(C)(C)CC1=O (stereo partly drawn) [Example 111A] | 24 nM | – | –
37 | COCC[C@H]([C@@H]1C[C@H]1C(=O)N[C@@H]1CC(C)(C)Oc2cc(C)ccc21)N1C(=N)NC(C)(C)CC1=O [Example 83B] | 26 nM | – | –
38 | CC1(C)CC(=O)N([C@H](c2ccc(C#N)cc2)[C@@H]2C[C@H]2C(=O)N[C@H]2CC(C)(C)Oc3ccccc32)C(=N)N1 [Example 45A] | 2.8 nM | – | –
39 | CCC1(CC)CC(=O)N([C@H](CCOC)[C@@H]2C[C@H]2C(=O)NC2CC(C)(C)Oc3cc(Cl)ccc32)C(=N)N1 (single isomer, unassigned) [Example 147A] | – | – | EC50 (Table 4 (unit inferred)): 2.8 nM
40 | COCC[C@H]([C@@H]1C[C@H]1C(=O)N[C@H]1CC(C)(C)Oc2ccccc21)N1C(=N)N[C@](C)(C(C)C)CC1=O [Example 20] | 5.3 nM | – | –
41 | COCC[C@H]([C@@H]1C[C@H]1C(=O)N[C@H]1CC(C)(C)Oc2ccc(Cl)cc21)N1C(=N)NC(C)(C)CC1=O [Example 101] | 2.9 nM | – | –
42 | CCC1(CC)CC(=O)N([C@H](c2cccnc2)[C@@H]2C[C@H]2C(=O)N[C@H]2C[C@H](C(F)(F)F)Oc3ccccc32)C(=N)N1 [Example 12] | 0.9 nM | – | –
43 | CC1(C)CC(=O)N([C@H](c2cccnc2)[C@@H]2C[C@H]2C(=O)NC2CC(C)(C)Oc3ccc(C(F)(F)F)cc32)C(=N)N1 (single isomer, unassigned) [Example 109B] | – | 1 nM | –
44 | COCC[C@H]([C@@H]1C[C@H]1C(=O)N[C@H]1C[C@H](C(F)(F)F)Oc2ccccc21)N1C(=N)N[C@](C)(C(C)C)CC1=O [Example 21A] | – | 260 nM | –
45 | CC1(C)CC(=O)N([C@H](c2ccc(C#N)cc2)[C@@H]2C[C@H]2C(=O)N[C@@H]2c3ccccc3OC(C)(C)[C@H]2O)C(=N)N1 [Example 46] | 2.5 nM | – | –
46 | CC1(C)CC(=O)N([C@H](c2cccc(C#N)c2)[C@@H]2C[C@H]2C(=O)N[C@H]2C[C@H](C(F)(F)F)Oc3ccccc32)C(=N)N1 [Example 52] | 1 nM | – | –
47 | CC1(C)CC(=O)N([C@H](c2cccnc2)[C@@H]2C[C@H]2C(=O)NC2CC(C)(C)Oc3cc(F)ccc32)C(=N)N1 (stereo partly drawn) [Example 77B] | – | 2.3 nM | –
48 | CCC1(CC)CC(=O)N(C[C@@H]2C(C)[C@H]2C(=O)N[C@@H]2c3ccccc3OCC2(C)O)C(=N)N1 (single isomer, unassigned) [Example 35B] | – | 220 nM | –
49 | CC1(C)CC(=O)N([C@H](c2cccnc2)[C@@H]2C[C@H]2C(=O)N[C@H]2CC(C)(C)Oc3ccc(Cl)cc32)C(=N)N1 [Example 120] | 1 nM | – | –
50 | CC1(C)CC(=O)N([C@H](c2cccnc2)[C@@H]2C[C@H]2C(=O)NC2CC(C)(C)Oc3cccc(F)c32)C(=N)N1 (stereo partly drawn) [Example 86B] | – | 2.8 nM | –
51 | CC1(C)CC(=O)N(C[C@@H]2C[C@H]2C(=O)N[C@H]2CC(C)(C)Oc3c(C(F)(F)F)ccc(F)c32)C(=N)N1 [Example 99] | 130 nM | – | –
52 | CC1(C)CC(=O)N([C@@H](c2cccnc2)[C@H]2[C@H](C(=O)N[C@H]3C[C@H](C(F)(F)F)Oc4ccccc43)C2(C)C)C(=N)N1 [Example 43B] | 37 nM | – | –
53 | CCC1(CC)CC(=O)N([C@H](c2cccnc2)[C@H]2[C@H](C(=O)N[C@H]3C[C@H](C(F)(F)F)Oc4ccccc43)C2(C)C)C(=N)N1 [Example 44B] | 0.9 nM | – | –
54 | CCC1(C)CC(NC(=O)[C@@H]2C[C@H]2[C@@H](c2cccnc2)N2C(=N)NC(C)(C)CC2=O)c2ccccc2O1 (single isomer, unassigned) [Example 105D] | – | 0.9 nM | –
